The values below come from patent US20040151785A1, “Method for treating insulin resistance through hepatic nitric oxide” (DiaMedica Inc., priority 1998, published 2004).

Molecules are shown by their SMILES. Like-named read-outs stand apart in the source and are kept apart here.

The subject of assay [1] is rats. The assay is described as follows: Rapid insulin sensitivity test (RIST), modified euglycemic clamp, in anesthetized rats. In kind it is in vivo, rat. The conditions noted are these: for inhibition at 50 mg/kg: Rattus norvegicus, iv. Here is the method: Surgical preparation. The left jugular vein was cannulated for glucose infusion. Spontaneous respiration was allowed through a tracheal tube. The blood samples (25 μl) were obtained through a right femoral arterial-venous loop (30). The right femoral artery was cannulated with the arterial side of the loop. The right femoral vein was cannulated with the venous side of the arterial-venous loop. Arterial blood pressure was monitored via the arterial-venous loop by clamping the silicon sleeve on the venous side of the loop. One of the advantages of using this loop is that blood samples can be taken directly from a moving stream of blood with no need to wash or flush sampling catheters. The arterial blood continuously flows through the loop into the venous side. Intravenous infusions, except glucose, were given through the venous side of the loop.

Another assay deals with cats. The conditions noted are these: cited from earlier work.
In assay [2] the test system is rats. The assay is described as follows: Arterial blood pressure monitored via arterial-venous loop during RIST experiments. The class given is in vivo, rat. The conditions noted are these: after atropine, group given intravenous L-NAME 1.0 mg/kg. As to the method:
Surgical preparation. The left jugular vein was cannulated for glucose infusion. Spontaneous respiration was allowed through a tracheal tube. The blood samples (25 μl) were obtained through a right femoral arterial-venous loop (30). The right femoral artery was cannulated with the arterial side of the loop. The right femoral vein was cannulated with the venous side of the arterial-venous loop. Arterial blood pressure was monitored via the arterial-venous loop by clamping the silicon sleeve on the venous side of the loop. One of the advantages of using this loop is that blood samples can be taken directly from a moving stream of blood with no need to wash or flush sampling catheters. The arterial blood continuously flows through the loop into the venous side. Intravenous infusions, except glucose, were given through the venous side of the loop. After laparotomy, the portal vein was cannulated with a 24G (OPTIVA™, Johnson & Johnson Medical Inc.) intravenous catheter for intraportal drug administration.

The term inhibition denotes the percentage by which the read-out fell short of the control.

Take `[NH-]c1c[n+](N2CCOCC2)no1` [SIN-1, 3-morpholinosyndnonimine]: the “inhibition of the control RIST remaining” value with rats [1] (SIN-1 5.0 mg/kg intraportal after intraportal L-NMMA 0.73 mg/kg, n=5) was 24.0±11.6%; in the assay with rats [1] (SIN-1 5.0 mg/kg intravenous after intraportal L-NMMA 0.73 mg/kg, n=4), 59.0±7.2%; with rats [1] (SIN-1 10.0 mg/kg intraportal after intraportal L-NMMA 0.73 mg/kg, n=5), 0.6±5.8%; with rats [1] (SIN-1 10.0 mg/kg intraportal after surgical denervation of the hepatic anterior plexus, n=6) it was 3.8±10.4%.

As to `CN1CCN(CC(=O)N2c3ccccc3C(=O)Nc3cccnc32)CC1` [parenzepine], the “dose achieving a similar degree of insulin resistance” value in the assay on cats is given as 10^−7 mmol/kg.

Take `CN1[C@@H]2CC[C@H]1C[C@@H](OC(=O)C(CO)c1ccccc1)C2` (stereo partly drawn) [atropine]: in the assay with rats [2], the blood pressure was 93.0±8.6 mmHg.

For `COc1ccccc1CNCCCCCCNCCCCCCCCNCCCCCCNCc1ccccc1OC` [methoctramine], the “dose required to produce a full / similar degree of insulin resistance” value in the assay with cats is reported as 10^−8 μmol/kg.

Turning to `N=C(N)NCCC[C@H](N)C(=O)O` [L-arginine], the inhibition at 50 mg/kg with rats [1] (read-out: inhibition of control RIST) came out at 53.8 ± 7.1%; in the assay on rats [1] (read-out: inhibition of the control response) it was 48.8 ± 8.2%.
